These results are taken from patent US20050054696A1, “Indole compounds and medicinal use thereof” (priority 2001, published 2005).

For the experiment, the target named is T1, recombinant human liver glycogen phosphorylase (HLGPa) (Homo sapiens, UniProt P06737).
T1 construct: made in house; host or cells: Sf9 insect cells (unpurified cell lysate used as enzyme solution)
T1 sequence (P06737 1-847): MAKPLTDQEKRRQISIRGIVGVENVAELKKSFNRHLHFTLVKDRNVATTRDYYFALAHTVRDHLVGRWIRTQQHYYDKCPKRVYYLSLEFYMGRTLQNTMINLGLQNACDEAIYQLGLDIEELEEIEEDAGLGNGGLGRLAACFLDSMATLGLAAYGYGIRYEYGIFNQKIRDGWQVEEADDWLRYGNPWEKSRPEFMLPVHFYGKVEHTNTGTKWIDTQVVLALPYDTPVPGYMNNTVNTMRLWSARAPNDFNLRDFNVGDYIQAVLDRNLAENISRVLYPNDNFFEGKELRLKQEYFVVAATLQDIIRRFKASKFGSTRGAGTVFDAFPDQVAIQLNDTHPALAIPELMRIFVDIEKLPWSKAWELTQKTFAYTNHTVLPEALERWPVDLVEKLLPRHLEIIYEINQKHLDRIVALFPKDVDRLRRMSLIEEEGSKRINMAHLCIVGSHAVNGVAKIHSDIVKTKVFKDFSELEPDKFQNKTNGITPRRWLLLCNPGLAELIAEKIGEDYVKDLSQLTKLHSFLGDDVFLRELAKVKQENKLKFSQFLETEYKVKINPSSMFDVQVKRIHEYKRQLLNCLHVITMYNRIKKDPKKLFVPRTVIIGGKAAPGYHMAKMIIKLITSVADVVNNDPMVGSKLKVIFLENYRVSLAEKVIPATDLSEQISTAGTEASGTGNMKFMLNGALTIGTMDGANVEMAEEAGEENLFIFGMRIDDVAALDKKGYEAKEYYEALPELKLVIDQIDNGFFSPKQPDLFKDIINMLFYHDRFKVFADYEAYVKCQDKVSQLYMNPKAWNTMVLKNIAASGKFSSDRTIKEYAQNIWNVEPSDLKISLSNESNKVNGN
As to the kind of experiment: Measurement of liver glycogen phosphorylase activity (enzyme inhibitory activity against HLGPa). It counts as biochemical. The note with it: Sf9 cell lysate expressing recombinant enzyme; reverse reaction (glycogen synthesis from G1-P), phosphate by malachite green, 60 min room temperature. In a few lines:
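Activity was run in the reverse, glycogen-synthesis direction, using Sf9 lysate expressing recombinant human liver glycogen phosphorylase (enzyme solution 80 μg/mL protein, pH 7.0). Substrate solution was Tris pH 7.2 with 1.25 mM glucose-1-phosphate, 2.5 mg/ml glycogen and 7.5 mM glucose, reacted 60 min at room temperature. Released phosphate was measured by malachite green A650, with % inhibition taken against DMSO control and no-enzyme blank.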
In general, IC50 refers to the point on the concentration scale where inhibition reaches its midpoint. Regarding `CN(C)C(=O)Oc1ccccc1C(=O)NNC(=O)c1cc2cc(Cl)ccc2[nH]1` [Example 1-65, 2-(2-(5-chloro-1H-indole-2-carbonyl)hydrazinocarbonyl)phenyl dimethylcarbamate], the IC50 is over 100 nM.

`O=C(Nc1ccccc1C(=O)NNC(=O)c1cc2cc(Cl)ccc2[nH]1)OC(CO)CO` [Example 1-75, 1,3-dihydroxy-2-propyl (2-(2-(5-chloro-1H-indole-2-carbonyl)hydrazinocarbonyl)phenyl)carbamate]: the IC50 was 250 nM. Take `O=C(Nn1c(=O)oc2ccccc2c1=O)c1cc2cc(Cl)ccc2[nH]1` [Example 2-2, N-(1,2,3,4-tetrahydro-2,4-dioxobenzo[e][1,3]oxazin-3-yl)-5-chloro-1H-indole-2-carboxamide]: the IC50 was 71 nM.

Regarding `CN(C)c1ccccc1C(=O)NNC(=O)c1cc2cc(Cl)ccc2[nH]1` [Example 1-51, 2-(dimethylamino)benzoic acid 2-(5-chloro-1H-indole-2-carbonyl)hydrazide], the 50% inhibitory concentration (IC50) worked out at 89 nM. For `O=C(Nn1c(=O)[nH]c2cc(Cl)ccc2c1=O)c1cc2cc(Cl)ccc2[nH]1` [Example 2-19, 5-chloro-1H-indole-2-carboxylic acid (7-chloro-1,2,3,4-tetrahydro-2,4-dioxoquinazolin-3-yl)amide], the concentration for half-maximal inhibition (IC50) was found to be 91 nM.

Consider `O=C(NNC(=O)c1ccccc1-c1ccccc1)c1cc2cc(Cl)ccc2[nH]1` [Example 1-27, biphenyl-2-carboxylic acid 2-(5-chloro-1H-indole-2-carbonyl)hydrazide], for which the 50% inhibitory concentration (IC50) was found to be 47 nM. To `Nc1ccccc1C(=O)NNC(=O)c1cc2ccc(Cl)cc2[nH]1` [Example 1-39, 2-aminobenzoic acid 2-(6-chloro-1H-indole-2-carbonyl)hydrazide] belongs 810 nM; to `N#Cc1ccc(C(=O)NNC(=O)c2cc3cc(Cl)ccc3[nH]2)cc1` [Example 1-58, 4-cyanobenzoic acid 2-(5-chloro-1H-indole-2-carbonyl)hydrazide], over 100 nM; to `O=C(NN1C(=O)[C@@H]2CCCN2C1=O)c1cc2cc(Cl)ccc2[nH]1` [Example 4-7, 5-chloro-1H-indole-2-carboxylic acid ((4S)-1,3-dioxo-perhydropyrrolo[1,2-c]imidazol-2-yl)amide], over 100 nM. To `O=C(NN1C(=O)N[C@H](Cc2ccccc2)C1=O)c1cc2cc(Cl)ccc2[nH]1` [Example 4-10, 5-chloro-1H-indole-2-carboxylic acid ((4R)-4-benzyl-2,5-dioxoimidazolidin-1-yl)amide] belongs over 100 nM; to `COC(=O)COc1cccc(C(=O)NNC(=O)c2cc3cc(Cl)ccc3[nH]2)c1` [Example 1-69, 2-(3-(2-(5-chloro-1H-indole-2-carbonyl)hydrazinocarbonyl)phenoxy)acetic acid methyl ester], 150 nM; to `O=C(NNC(=O)c1ccccc1Cl)c1cc2cc(Cl)ccc2[nH]1` [Example 1-19, 2-chlorobenzoic acid 2-(5-chloro-1H-indole-2-carbonyl)hydrazide], 91 nM. The value for `O=C(NNC(=O)C1(c2ccccc2)CCCC1)c1cc2cc(Cl)ccc2[nH]1` [Example 5-13, 5-chloro-1H-indole-2-carboxylic acid 2-((1-phenylcyclopentane)carbonyl)hydrazide] was 410 nM; that for `O=C(NNC(=O)C1CCCCC1)c1cc2cc(Cl)ccc2[nH]1` [Example 1-23, cyclohexanecarboxylic acid 2-(5-chloro-1H-indole-2-carbonyl)hydrazide] was 75 nM; that for `N=C(NNC(=O)c1cc2cc(Cl)ccc2[nH]1)c1ccccn1` [Example 1-136, 5-chloro-1H-indole-2-carboxylic acid 2-(imino-(pyridin-2-yl)-methyl)hydrazide] was 270 nM.

Turning to `Nc1cc(F)ccc1C(=O)NNC(=O)c1cc2cc(Br)ccc2[nH]1` [Example 1-103, 2-amino-4-fluorobenzoic acid 2-(5-bromo-1H-indole-2-carbonyl)hydrazide], the IC50 came to 28 nM.

Consider `Cn1cccc1C(=O)NNC(=O)c1cc2cc(Cl)ccc2[nH]1` [Example 1-87, 1-methyl-1H-pyrrole-2-carboxylic acid 2-(5-chloro-1H-indole-2-carbonyl)hydrazide], for which the half-inhibitory concentration (IC50) amounted to 56 nM. To `O=C(NNC(=O)c1ccc(Cl)s1)c1cc2cc(Cl)ccc2[nH]1` [Example 1-85, 5-chlorothiophene-2-carboxylic acid 2-(5-chloro-1H-indole-2-carbonyl)hydrazide] belongs 430 nM; to `O=C(NNC(=O)c1cc2cc(Cl)ccc2[nH]1)Nc1ccccc1F` [Example 5-5, 5-chloro-1H-indole-2-carboxylic acid 2-((2-fluorophenyl)aminocarbonyl)hydrazide], 79 nM. The value for `Cc1ccsc1C(=O)NNC(=O)c1cc2cc(Cl)ccc2[nH]1` [Example 1-89, 3-methylthiophene-2-carboxylic acid 2-(5-chloro-1H-indole-2-carbonyl)hydrazide] was 450 nM; that for `CN(NC(=O)c1cc2cc(Cl)ccc2[nH]1)C(=O)C1CCCCC1` [Example 1-116, cyclohexanecarboxylic acid 2-(5-chloro-1H-indole-2-carbonyl)-1-methylhydrazide] was 41 nM; that for `O=C(NNC(=O)c1cc2cc(Cl)ccc2[nH]1)c1cccc(-c2nnn[nH]2)c1` [Example 1-60, 3-(1H-tetrazol-5-yl)benzoic acid 2-(5-chloro-1H-indole-2-carbonyl)hydrazide] was over 100 nM. The value for `O=C(NNC(=O)c1cc2cc(Cl)ccc2[nH]1)c1cccc(Cl)c1` [Example 1-20, 3-chlorobenzoic acid 2-(5-chloro-1H-indole-2-carbonyl)hydrazide] was 35 nM; that for `O=C(NN1C(=O)CN(c2ccccc2)C1=O)c1cc2cc(Cl)ccc2[nH]1` [Example 4-2, N-(2,4-dioxo-1-phenylimidazolidin-3-yl)-5-chloro-1H-indole-2-carboxamide] was 23 nM; that for `O=C(NN1C(=O)CCN(c2ccccn2)C1=O)c1cc2cc(Cl)ccc2[nH]1` [Example 3-6, 5-chloro-1H-indole-2-carboxylic acid (2,4-dioxo-1-(pyridin-2-yl)perhydropyrimidin-3-yl)amide] was 190 nM. In the case of `O=C(NN1C(=O)[C@H]2CCCN2C1=O)c1cc2cc(Cl)ccc2[nH]1` [Example 4-8, 5-chloro-1H-indole-2-carboxylic acid ((4R)-1,3-dioxo-perhydropyrrolo[1,2-c]imidazol-2-yl)amide], the IC50 is over 100 nM. To `O=C(Nn1c(=O)[nH]c2ccccc2c1=O)c1cc2cc(F)ccc2[nH]1` [Example 2-11, 5-fluoro-1H-indole-2-carboxylic acid (1,2,3,4-tetrahydro-2,4-dioxoquinazolin-3-yl)amide] belongs over 100 nM; to `O=C(NN1C(=O)CCN(c2ccccc2)C1=O)c1cc2cc(Cl)ccc2[nH]1` [Example 3-3, N-(2,4-dioxo-1-phenyl-perhydropyrimidin-3-yl)-5-chloro-1H-indole-2-carboxamide], 78 nM.

On to `N=C(NNC(=O)c1cc2cc(Cl)ccc2[nH]1)c1cccc(F)c1` [Example 1-127, 5-chloro-1H-indole-2-carboxylic acid 2-((3-fluorophenyl)-imino-methyl)hydrazide], for which the IC50 amounted to 84 nM.
